Common to all, as to type: cell-based
A short description of data set [1]: Cytotoxicity in PHH natural infection assay (Cell Counting Kit-8). Conditions: HBV-infected primary human hepatocytes, CCK8. The method in brief:
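HBV-infected primary human hepatocytes (200 GE/cell, 4% PEG8000, 24 h), then sandwich-cultured 72 h. Cells dosed at varying concentrations for two 72-hour cycles, with medium refreshed. Cytotoxicity read by CCK-8 at end of treatment.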
A general note: Tetrazolium assays rely on reduction of a dye to a coloured formazan, in cell work by metabolically active cells.

The next data set concerns HBsAg. Briefly: PHH HBV natural infection assay, HBsAg (alphalisa). Conditions: Hepatitis B virus, Hepatocyte, read-out: HBsAg IC50. In a few lines:
(§1)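 Primary human hepatocytes infected with HBV at 200 GE/cell plus 4% PEG8000 for 24 h, then sandwich-cultured 72 h in medium with 1% DMSO. Compound applied twice at 72-h intervals; supernatant HBsAg and HBeAg quantified by AlphaLISA.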

For another data set, the system named is HBeAg. Kind of data set: PHH HBV natural infection assay, HBeAg (alphalisa). Conditions: Hepatitis B virus, Hepatocyte, read-out: HBeAg IC50. The method in brief: as §1
(In general: Alpha assays give light when donor and acceptor beads are brought close together.)

Bounds are passed on as bounds.

Turning to `O=C(NC1CC2(C1)CN(c1nc3cc(Cl)ccc3o1)C2)c1ccc(S(=O)(=O)CC2CC2)o1` [Example 65, N-[2-(5-chloro-1,3-benzoxazol-2-yl)-2-azaspiro[3.3]heptan-6-yl]-5-(cyclopropylmethylsulfonyl)furan-2-carboxamide], the CC50 at 144 h in data set [1] was 92.3 µM. Also, the IC50 in the data set on HBsAg is 0.806 µM; in the data set on HBeAg, 1.07 µM.

The compound `O=C(NC1CC2(C1)CN(c1nc3cc(Cl)ccc3o1)C2)c1ccnc(S(=O)(=O)C2CC2)c1` [Example 66, N-[2-(5-chloro-1,3-benzoxazol-2-yl)-2-azaspiro[3.3]heptan-6-yl]-2-cyclopropylsulfonyl-pyridine-4-carboxamide] had a 50% cytotoxic concentration (CC50) at 144 h in data set [1] of 84.2 µM. For the same compound, the values for the IC50 in the data set with HBsAg and in the data set on HBeAg were 0.781 µM and 0.608 µM, respectively.

Compound `CC1(NC(=O)c2ccc(S(C)(=O)=O)o2)CC2(CN(c3nc4cc(Cl)ccc4o3)C2)C1` [Example 67, N-[2-(5-chloro-1,3-benzoxazol-2-yl)-6-methyl-2-azaspiro[3.3]heptan-6-yl]-5-methylsulfonyl-furan-2-carboxamide] gave a CC50 at 144 h in data set [1] above 100 µM. In addition, the 50% inhibitory concentration (IC50) is 1.77 µM with HBsAg and 2.13 µM in the data set with HBeAg.

In data set [1], `CC1(NC(=O)c2ccnc(C(F)(F)F)c2)CC2(CN(c3nc4cc(Cl)ccc4o3)C2)C1` [Example 68, N-[2-(5-chloro-1,3-benzoxazol-2-yl)-6-methyl-2-azaspiro[3.3]heptan-6-yl]-2-(trifluoromethyl)pyridine-4-carboxamide] gave a 50% cytotoxic concentration (CC50) at 144 h of 86.9 µM. The results for the IC50 in the data set on HBsAg and in the data set on HBeAg were 4.35 µM and 4.69 µM, respectively.

In turn, `O=C(NC1CCC2(C1)CN(c1nc3cc(Cl)ccc3o1)C2)c1ccc(C(F)(F)F)o1` (stereo not drawn) [Example 69, N-[2-(5-chloro-1,3-benzoxazol-2-yl)-2-azaspiro[3.4]octan-6-yl]-5-(trifluoromethyl)furan-2-carboxamide] had a CC50 at 144 h in data set [1] of 83.2 µM. Also, the figures for the half-maximal inhibitory concentration (IC50) with HBsAg and in the data set on HBeAg were 4.41 µM and 4.01 µM, respectively.

As for `O=C(NC1CCC2(CC1)CN(c1nc3cc(Cl)ccc3o1)C2)c1ccc(C(F)(F)F)o1` [Example 70, N-[2-(5-chloro-1,3-benzoxazol-2-yl)-2-azaspiro[3.5]nonan-7-yl]-5-(trifluoromethyl)furan-2-carboxamide], in data set [1], the cytotoxic concentration (CC50) at 144 h is above 100 µM. Besides, the results for the IC50 in the data set with HBsAg and with HBeAg were 6.09 µM and 2.96 µM, respectively.

`O=C(NC1CC2(CCN(c3nc4cc(Cl)ccc4o3)C2)C1)C1CCS(=O)(=O)C1` (stereo not drawn) [Example 71, N-[6-(5-chloro-1,3-benzoxazol-2-yl)-6-azaspiro[3.4]octan-2-yl]-1,1-dioxo-thiolane-3-carboxamide] had a 50% cytotoxic concentration (CC50) at 144 h in data set [1] of 94.1 µM. Moreover, the IC50 is 8.21 µM in the data set on HBsAg and 5.96 µM with HBeAg.

Turning to `O=C(NC1CC2(CCN(c3nc4cc(Cl)ccc4o3)C2)C1)c1ccc(C(F)(F)F)o1` (stereo not drawn) [Example 72, N-[6-(5-chloro-1,3-benzoxazol-2-yl)-6-azaspiro[3.4]octan-2-yl]-5-(trifluoromethyl)furan-2-carboxamide], the CC50 at 144 h in data set [1] turned out to be 81.4 µM. Further, the results for the 50% inhibitory concentration (IC50) in the data set on HBsAg and with HBeAg were 7.9 µM and 4.36 µM, respectively.

In data set [1], `O=C(NC1CC2(CCN(c3nc4ccc(Cl)cc4o3)C2)C1)C1CCS(=O)(=O)C1` (stereo not drawn) [Example 73, N-[6-(6-chloro-1,3-benzoxazol-2-yl)-6-azaspiro[3.4]octan-2-yl]-1,1-dioxo-thiolane-3-carboxamide] gave a cytotoxic concentration (CC50) at 144 h above 100 µM. The IC50 with HBsAg came to 6.32 µM; with HBeAg, 3.05 µM.

In the case of `O=C(NC1CCC2(CCN(c3nc4cc(Cl)ccc4o3)C2)C1)C1CCS(=O)(=O)C1` (stereo not drawn) [Example 74, N-[2-(5-chloro-1,3-benzoxazol-2-yl)-2-azaspiro[4.4]nonan-8-yl]-1,1-dioxo-thiolane-3-carboxamide], the CC50 at 144 h in data set [1] is above 100 µM. Further, the IC50 in the data set with HBsAg worked out at 4.33 µM; in the data set on HBeAg, 3.73 µM.

In turn, `O=C(NC1CCC2(CCN(c3nc4cc(Cl)ccc4o3)C2)C1)c1ccc(C(F)(F)F)o1` (stereo not drawn) [Example 75, N-[2-(5-chloro-1,3-benzoxazol-2-yl)-2-azaspiro[4.4]nonan-8-yl]-5-(trifluoromethyl)furan-2-carboxamide] displayed a CC50 at 144 h in data set [1] of 91.2 µM. Besides, the half-maximal inhibitory concentration (IC50) in the data set on HBsAg worked out at 8.28 µM; in the data set on HBeAg it was 7.81 µM.

In the case of `O=C(NC1CC2(CCN(c3nc4cc(Cl)ccc4o3)CC2)C1)C1CCS(=O)(=O)C1` (stereo not drawn) [Example 76, N-[7-(5-chloro-1,3-benzoxazol-2-yl)-7-azaspiro[3.5]nonan-2-yl]-1,1-dioxo-thiolane-3-carboxamide], in data set [1], the CC50 at 144 h is above 100 µM. Moreover, the half-maximal inhibitory concentration (IC50) with HBsAg came to 2.26 µM; with HBeAg, 2.27 µM.

Regarding `O=C(NC1CC2(CCN(c3nc4cc(Cl)ccc4o3)CC2)C1)c1ccc(C(F)(F)F)o1` [Example 77, N-[7-(5-chloro-1,3-benzoxazol-2-yl)-7-azaspiro[3.5]nonan-2-yl]-5-(trifluoromethyl)furan-2-carboxamide], in data set [1], the CC50 at 144 h was above 100 µM. Moreover, the IC50 in the data set with HBsAg came to 5.04 µM; in the data set on HBeAg, 2.98 µM.

The compound `CC(C)(C)C(=O)NC1CCC2(CC1)CCN(c1nc3cc(Cl)ccc3o1)CC2` [Example 78, N-[3-(5-chloro-1,3-benzoxazol-2-yl)-3-azaspiro[5.5]undecan-9-yl]-2,2-dimethyl-propanamide] had a CC50 at 144 h in data set [1] of 57.9 µM. Moreover, the half-inhibitory concentration (IC50) in the data set on HBsAg was found to be 1.47 µM; with HBeAg, 1.2 µM.

In data set [1], `CC(C)C(=O)NC1CCC2(CC1)CCN(c1nc3cc(Cl)ccc3o1)CC2` [Example 79, N-[3-(5-chloro-1,3-benzoxazol-2-yl)-3-azaspiro[5.5]undecan-9-yl]-2-methyl-propanamide] registered a CC50 at 144 h above 100 µM. In addition, the concentration for half-maximal inhibition (IC50) with HBsAg was 8.84 µM; in the data set on HBeAg, 11.6 µM.

`CC(C)CC(=O)NC1CCC2(CC1)CCN(c1nc3cc(Cl)ccc3o1)CC2` [Example 80, N-[3-(5-chloro-1,3-benzoxazol-2-yl)-3-azaspiro[5.5]undecan-9-yl]-3-methyl-butanamide] had a CC50 at 144 h in data set [1] above 100 µM. Further, the IC50 in the data set with HBsAg stood at 2.7 µM; in the data set with HBeAg, 2.79 µM.

Consider `CS(=O)(=O)CC(=O)NC1CCC2(CC1)CCN(c1nc3cc(Cl)ccc3o1)CC2` [Example 81, N-[3-(5-chloro-1,3-benzoxazol-2-yl)-3-azaspiro[5.5]undecan-9-yl]-2-methylsulfonyl-acetamide], for which the 50% cytotoxic concentration (CC50) at 144 h in data set [1] was 67.3 µM. The 50% inhibitory concentration (IC50) with HBsAg worked out at 3.49 µM; in the data set on HBeAg, 2.28 µM.

As to `NS(=O)(=O)CCC(=O)NC1CCC2(CC1)CCN(c1nc3cc(Cl)ccc3o1)CC2` [Example 82, N-[3-(5-chloro-1,3-benzoxazol-2-yl)-3-azaspiro[5.5]undecan-9-yl]-3-sulfamoyl-propanamide], the midpoint of cytotoxicity in data set [1], the CC50 at 144 h, lay at 76.3 µM. For the same compound, the half-inhibitory concentration (IC50) in the data set with HBsAg turned out to be 3.09 µM; in the data set on HBeAg, 2.3 µM.

Turning to `CS(=O)(=O)CCC(=O)NC1CCC2(CC1)CCN(c1nc3cc(Cl)ccc3o1)CC2` [Example 83, N-[3-(5-chloro-1,3-benzoxazol-2-yl)-3-azaspiro[5.5]undecan-9-yl]-3-methylsulfonyl-propanamide], the midpoint of cytotoxicity in data set [1], the CC50 at 144 h, lay at 98.6 µM. In addition, the values for the IC50 in the data set with HBsAg and in the data set with HBeAg were 2.49 µM and 1.79 µM, respectively.

In data set [1], `O=C(CC1CCOC1)NC1CCC2(CC1)CCN(c1nc3cc(Cl)ccc3o1)CC2` (stereo not drawn) [Example 84, N-[3-(5-chloro-1,3-benzoxazol-2-yl)-3-azaspiro[5.5]undecan-9-yl]-2-tetrahydrofuran-3-yl-acetamide] displayed a CC50 at 144 h of 58.6 µM. Moreover, the IC50 in the data set with HBsAg is 2.02 µM; in the data set on HBeAg it was 1.37 µM.

In the case of `O=C(NC1CCC2(CC1)CCN(c1nc3cc(Cl)ccc3o1)CC2)C1COC1` [Example 85, N-[3-(5-chloro-1,3-benzoxazol-2-yl)-3-azaspiro[5.5]undecan-9-yl]oxetane-3-carboxamide], it took 70.9 µM to reach half-maximal cytotoxicity in data set [1] (CC50 at 144 h). The results for the concentration for half-maximal inhibition (IC50) in the data set with HBsAg and in the data set on HBeAg were 8.75 µM and 6.13 µM, respectively.

`O=C(NC1CCC2(CC1)CCN(c1nc3cc(Cl)ccc3o1)CC2)C1CCOC1` (stereo not drawn) [Example 86, N-[3-(5-chloro-1,3-benzoxazol-2-yl)-3-azaspiro[5.5]undecan-9-yl]tetrahydrofuran-3-carboxamide] returned a CC50 at 144 h in data set [1] of 82.7 µM. In addition, the IC50 worked out at 2.89 µM in the data set with HBsAg and 2.8 µM with HBeAg.

In data set [1], `CC1(C(=O)NC2CCC3(CC2)CCN(c2nc4cc(Cl)ccc4o2)CC3)CCSCC1` [Example 87, N-[3-(5-chloro-1,3-benzoxazol-2-yl)-3-azaspiro[5.5]undecan-9-yl]-4-methyl-tetrahydrothiopyran-4-carboxamide] showed a CC50 at 144 h above 100 µM. The IC50 is 1.43 µM with HBsAg and 1.13 µM in the data set on HBeAg.

`O=C(NC1CCC2(CC1)CCN(c1nc3cc(Cl)ccc3o1)CC2)C1CS(=O)(=O)C1` [Example 88, N-[3-(5-chloro-1,3-benzoxazol-2-yl)-3-azaspiro[5.5]undecan-9-yl]-1,1-dioxo-thietane-3-carboxamide]: in data set [1], the CC50 at 144 h was 28.9 µM. Moreover, the 50% inhibitory concentration (IC50) with HBsAg amounted to 1.52 µM; with HBeAg, 1.25 µM.

For the compound `O=C(NC1CCC2(CC1)CCN(c1nc3ccc(Cl)cc3o1)CC2)C1CS(=O)(=O)C1` [Example 89, N-[3-(6-chloro-1,3-benzoxazol-2-yl)-3-azaspiro[5.5]undecan-9-yl]-1,1-dioxo-thietane-3-carboxamide], the CC50 at 144 h in data set [1] turned out to be 88.1 µM. For the same compound, the IC50 in the data set with HBsAg came out at 6.76 µM; in the data set with HBeAg, 3.93 µM.

With `O=C(NC1CCC2(CC1)CCN(c1nc3cc(Cl)ccc3o1)CC2)C1CCS(=O)(=O)C1` (stereo not drawn) [Example 90, N-[3-(5-chloro-1,3-benzoxazol-2-yl)-3-azaspiro[5.5]undecan-9-yl]-1,1-dioxo-thiolane-3-carboxamide], the CC50 at 144 h in data set [1] worked out at 73.9 µM. Besides, the IC50 worked out at 1.35 µM in the data set with HBsAg and 1.08 µM with HBeAg.

The term CC50 denotes the concentration at which the toxic effect on the cells reaches its halfway point. Read a high CC50 as better tolerance by the cells. The IC50 is the midpoint of a concentration-inhibition curve.

Source of the values: patent US20230416238A1, “N-[(1,3-BENZOXAZOL-2-YL)-HETEROCYCLE]AMIDE DERIVATIVES FOR THE TREATMENT AND PROPHYLAXIS OF HEPATITIS B VIRUS INFECTION” (Hoffmann-La Roche Inc., priority 2020, published 2023).
